Measurements published in ChEMBL document CHEMBL3352021, “Naphthyridinone (NTD) integrase inhibitors 4. Investigating N1 acetamide substituent effects with C3 amide groups” (Bioorg Med Chem Lett, 2014).

Key:
[1] = molecular target: Human immunodeficiency virus type 1 integrase (Human immunodeficiency virus 1, UniProt Q7ZJM1); test: Inhibition of recombinant HIV-1 integrase by strand-transfer assay
[2] = system: Human immunodeficiency virus; test: Antiviral activity against pseudotyped HIV by luciferase reporter gene assay; format: functional, organism-based; conditions: Human immunodeficiency virus 1
[3] = system: Human immunodeficiency virus; test: Antiviral activity against pseudotyped HIV by luciferase reporter gene assay in presence of human serum albumin; format: functional, organism-based; conditions: Human immunodeficiency virus 1
[4] = system: Human immunodeficiency virus; test: Antiviral activity against HIV infected in PBMC; format: functional, organism-based; conditions: Human immunodeficiency virus 1
[5] = system: Human immunodeficiency virus; test: Ratio of IC50 for pseudotyped HIV by luciferase reporter gene assay in presence of human serum albumin to IC50 for pseudotyped HIV by luciferase reporter gene assay; format: functional
[6] = system: Human immunodeficiency virus; test: Antiviral activity against HIV infected in PBMC assessed as protein-adjusted compound concentration; format: functional, organism-based; conditions: Human immunodeficiency virus 1
[7] = Inhibition of CYP450 (unknown origin) up to 33 uM; format: ADME; conditions: human
[8] = Half life in rat at 1 mg/kg, iv as bolus dose; format: ADME, organism-based; design: dose 1 mg/kg, route intravenous; conditions: in vivo
[9] = Half life in dog at 1 mg/kg, iv as bolus dose; format: ADME, organism-based, Canis lupus familiaris; design: dose 1 mg/kg, route intravenous; conditions: in vivo
[10] = Half life in cynomolgus monkey at 1 mg/kg, iv as bolus dose; format: ADME, organism-based, Macaca fascicularis; design: dose 1 mg/kg, route intravenous; conditions: in vivo
[11] = Oral bioavailability in rat at 5 mg/kg; format: ADME, organism-based; conditions: in vivo
[12] = Oral bioavailability in dog at 5 mg/kg; format: ADME, organism-based, Canis lupus familiaris; conditions: in vivo
[13] = Oral bioavailability in cynomolgus monkey at 5 mg/kg; format: ADME, organism-based, Macaca fascicularis; conditions: in vivo
[14] = Ratio of plasma concentration in rat at 5 mg/kg, po to IC90 for HIV infected in PBMC assessed as protein-adjusted compound concentration; format: ADME, organism-based; design: dose 5 mg/kg, route oral; conditions: in vivo
[15] = Ratio of plasma concentration in dog at 5 mg/kg, po to IC90 for HIV infected in PBMC assessed as protein-adjusted compound concentration; format: ADME, organism-based; design: dose 5 mg/kg, route oral; conditions: in vivo
[16] = Ratio of plasma concentration in cynomolgus monkey at 5 mg/kg, po to IC90 for HIV infected in PBMC assessed as protein-adjusted compound concentration; format: ADME, organism-based; design: dose 5 mg/kg, route oral; conditions: in vivo
[17] = Plasma clearance in rat at 1 mg/kg, iv
[18] = Plasma clearance in dog at 1 mg/kg, iv
[19] = Plasma clearance in cynomolgus monkey at 1 mg/kg, iv

Chain of Human immunodeficiency virus type 1 integrase (Q7ZJM1 whole entry): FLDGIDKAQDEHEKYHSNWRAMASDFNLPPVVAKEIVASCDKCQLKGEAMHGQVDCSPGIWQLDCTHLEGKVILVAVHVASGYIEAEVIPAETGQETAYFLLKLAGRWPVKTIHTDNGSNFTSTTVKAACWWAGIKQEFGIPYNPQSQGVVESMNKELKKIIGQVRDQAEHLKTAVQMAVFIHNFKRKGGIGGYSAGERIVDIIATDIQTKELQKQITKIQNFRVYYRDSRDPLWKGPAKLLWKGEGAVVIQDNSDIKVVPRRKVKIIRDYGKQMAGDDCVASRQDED

SMILES	IC50 [1] [nM]	IC50 [2] [nM]	IC50 [3] [nM]	also measured
CCNC(=O)Cn1c(=O)c(C(=O)NC)c(O)c2ncc(Cc3ccc(F)cc3)cc21	8.2	2.9	11	–
CNC(=O)c1c(O)c2ncc(Cc3ccc(F)cc3)cc2n(CC(N)=O)c1=O	7.6	2.2	56	–
CNC(=O)Cn1c(=O)c(C(=O)NC)c(O)c2ncc(Cc3ccc(F)cc3)cc21	9.3	3.3	22	–
CNC(=O)c1c(O)c2ncc(Cc3ccc(F)cc3)cc2n(CC(=O)N(C)C)c1=O	9.3	5.9	19	IC50 [4]: 4.2 nM; Ratio IC50 [5]: 3.3; IC50 [6]: 14 nM; IC90 [6]: 55 nM; inhibition (INH) [7]: Not Active; half-life [8]: 13.8 h; half-life [9]: 1.3 h; half-life [10]: 5 h; bioavailability [11]: 69%; bioavailability [12]: 75%; bioavailability [13]: 60%; Ratio [14]: 2.4; Ratio [15]: 0.1; Ratio [16]: 0.7; clearance [17]: 0.7 mL/min/kg; clearance [18]: 10.9 mL/min/kg; clearance [19]: 6.3 mL/min/kg
CCN(CC)C(=O)Cn1c(=O)c(C(=O)NC)c(O)c2ncc(Cc3ccc(F)cc3)cc21	4.4	9.2	17	–
CNC(=O)c1c(O)c2ncc(Cc3ccc(F)cc3)cc2n(CC(=O)N2CCCC2)c1=O	13	4.9	16	–
CCCNC(=O)Cn1c(=O)c(C(=O)NC)c(O)c2ncc(Cc3ccc(F)cc3)cc21	9.2	5.5	14	–
CNC(=O)c1c(O)c2ncc(Cc3ccc(F)cc3)cc2n(CC(=O)NC(C)C)c1=O	7.8	3.2	12	–
CNC(=O)c1c(O)c2ncc(Cc3ccc(F)cc3)cc2n(CC(=O)NC2CC2)c1=O	4.4	2.6	7.6	–
CNC(=O)c1c(O)c2ncc(Cc3ccc(F)cc3)cc2n(CC(=O)NC(C)(C)C)c1=O	6.9	4.8	16	–
CNC(=O)c1c(O)c2ncc(Cc3ccc(F)cc3)cc2n(CC(=O)NCC2CC2)c1=O	8	5.9	33	–
CNC(=O)c1c(O)c2ncc(Cc3ccc(F)cc3)cc2n(CC(=O)NCC(F)(F)F)c1=O	7.1	1.5	15	–
CNC(=O)c1c(O)c2ncc(Cc3ccc(F)cc3)cc2n(CC(=O)NCCOC)c1=O	6.8	3.7	91	–
CNC(=O)c1c(O)c2ncc(Cc3ccc(F)cc3)cc2n(CC(=O)NCCN(C)C)c1=O	22	42	83	–
CNC(=O)c1c(O)c2ncc(Cc3ccc(F)cc3)cc2n(CC(=O)NOC)c1=O	5.7	3.3	13	–
CN(C)C(=O)Cn1c(=O)c(C(=O)NC2CC2)c(O)c2ncc(Cc3ccc(F)cc3)cc21	3	9.3	193	–
CN(C)C(=O)Cn1c(=O)c(C(=O)NCCO)c(O)c2ncc(Cc3ccc(F)cc3)cc21	5.7	17	35	–
COCCNC(=O)c1c(O)c2ncc(Cc3ccc(F)cc3)cc2n(CC(=O)N(C)C)c1=O	4	3.1	9	IC50 [4]: 4.3 nM; Ratio IC50 [5]: 2.9; IC50 [6]: 13 nM; IC90 [6]: 50 nM; inhibition (INH) [7]: Not Active; half-life [8]: 12.5 h; half-life [9]: 1.8 h; half-life [10]: 5.4 h; bioavailability [11]: 59%; bioavailability [12]: 7%; bioavailability [13]: 31%; Ratio [14]: 0.5; Ratio [16]: 0.6; clearance [17]: 3.6 mL/min/kg; clearance [18]: 19.5 mL/min/kg; clearance [19]: 9.2 mL/min/kg

SMILES	IC50 [1] [nM]	IC50 [2] [nM]	IC50 [3] [nM]	also measured
C[C@H](CO)NC(=O)c1c(O)c2ncc(Cc3ccc(F)cc3)cc2n(CC(=O)N(C)C)c1=O	8.6	31	40	–
C[C@@H](CO)NC(=O)c1c(O)c2ncc(Cc3ccc(F)cc3)cc2n(CC(=O)N(C)C)c1=O	7.1	17	24	–
CN(C)C(=O)Cn1c(=O)c(C(=O)NC(C)(C)CO)c(O)c2ncc(Cc3ccc(F)cc3)cc21	6.5	3.6	82	–
CN(C)C(=O)Cn1c(=O)c(C(=O)NC2(CO)CCCC2)c(O)c2ncc(Cc3ccc(F)cc3)cc21	23	7.2	24	–
C[C@@H](O)CNC(=O)c1c(O)c2ncc(Cc3ccc(F)cc3)cc2n(CC(=O)N(C)C)c1=O	9.2	11	70	–
C[C@H](O)CNC(=O)c1c(O)c2ncc(Cc3ccc(F)cc3)cc2n(CC(=O)N(C)C)c1=O	4.1	7.1	15	–
CN(C)C(=O)Cn1c(=O)c(C(=O)NCCN2CCOCC2)c(O)c2ncc(Cc3ccc(F)cc3)cc21	8.6	19	25	–
COCCNC(=O)c1c(O)c2ncc(Cc3ccc(F)cc3)cc2n(CC(N)=O)c1=O	7.7	4.3	22	–
COCCNC(=O)c1c(O)c2ncc(Cc3ccc(F)cc3)cc2n(CC(=O)NC2CC2)c1=O	7.3	3	18	–
COCCNC(=O)c1c(O)c2ncc(Cc3ccc(F)cc3)cc2n(CC(=O)NC2CCC2)c1=O	8.5	3.3	39	–
COCCNC(=O)c1c(O)c2ncc(Cc3ccc(F)cc3)cc2n(CC(=O)NC(C)C)c1=O	6.2	3.2	57	–
COCCNC(=O)c1c(O)c2ncc(Cc3ccc(F)cc3)cc2n(CC(=O)NCC(F)(F)F)c1=O	11	2.4	20	–
COCCNC(=O)c1c(O)c2ncc(Cc3ccc(F)cc3)cc2n(CC(=O)NCCN(C)C)c1=O	45	27	124	–
COCCNC(=O)c1c(O)c2ncc(Cc3ccc(F)cc3)cc2n(CC(=O)N2CCCC2)c1=O	42	3.8	11	–
COCCNC(=O)c1c(O)c2ncc(Cc3ccc(F)cc3)cc2n(CC(=O)N2CCCCC2)c1=O	4.7	3.6	12	–
COCCNC(=O)c1c(O)c2ncc(Cc3ccc(F)cc3)cc2n(CC(=O)N2CCOCC2)c1=O	7.6	3.5	6.7	–
COCCNC(=O)c1c(O)c2ncc(Cc3ccc(F)cc3)cc2n(CC(=O)N2CCN(C)CC2)c1=O	28	5.3	13	–
Cn1c(=O)c(C(=O)NCCO)c(O)c2ncc(Cc3ccc(F)cc3)cc21 [GSK-364735]	8.1	1.7	–	–
